According to PubChem BioAssay AID248 (DTP/NCI, 2004):
“And” between values parts separate entries of the source, which are not always exact repeats. Identical values can stand only once. Inconclusive results and toxic doses are left out. No stated cut-off is given here; in the data, active means T/C of 150% or more; inactive means T/C below 125%.

System: L1210 leukemia ip in BDF1 mice, survival T/C
Assay: NCI In Vivo Anticancer Drug Screen. Data for tumor model L1210 Leukemia (intraperitoneal) in B6D2F1 (BDF1) mice
Conditions: higher = longer survival
Procedure, shortened: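 Each compound was tested against a transplantable tumor grown in mice. The endpoint was survival, with treated animals benchmarked against vehicle controls as a simple ratio.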

[1] = endpoint: mean survival time, dose: 100.0 mg/kg/injection, schedule: Q01DX009 (ip), vehicle: saline
[2] = endpoint: mean survival time, dose: 200.0 mg/kg/injection, schedule: Q01DX009 (ip), vehicle: saline
[3] = endpoint: mean survival time, dose: 100.0 mg/kg/injection, schedule: Q04DX002 (ip), vehicle: saline
[4] = endpoint: mean survival time, dose: 100.0 mg/kg/injection, schedule: Q04DX002 (ip), vehicle: Klucel (hydroxypropylcellulose) (HPC)
[5] = endpoint: mean survival time, dose: 200.0 mg/kg/injection, schedule: Q04DX002 (ip), vehicle: Klucel (hydroxypropylcellulose) (HPC)
[6] = endpoint: mean survival time, dose: 400.0 mg/kg/injection, schedule: Q04DX002 (ip), vehicle: Klucel (hydroxypropylcellulose) (HPC)
[7] = endpoint: mean survival time, dose: 100.0 mg/kg/injection, schedule: Q04DX003 (ip), vehicle: Klucel (hydroxypropylcellulose) (HPC)
[8] = endpoint: mean survival time, dose: 200.0 mg/kg/injection, schedule: Q04DX003 (ip), vehicle: Klucel (hydroxypropylcellulose) (HPC)
[9] = endpoint: mean survival time, dose: 400.0 mg/kg/injection, schedule: Q04DX003 (ip), vehicle: Klucel (hydroxypropylcellulose) (HPC)
[10] = endpoint: mean survival time, dose: 100.0 mg/kg/injection, schedule: Q01DX001 (ip), vehicle: carboxymethylcellulose (CMC)
[11] = endpoint: mean survival time, dose: 200.0 mg/kg/injection, schedule: Q01DX001 (ip), vehicle: carboxymethylcellulose (CMC)
[12] = endpoint: mean survival time, dose: 400.0 mg/kg/injection, schedule: Q01DX001 (ip), vehicle: carboxymethylcellulose (CMC)
[13] = endpoint: mean survival time, dose: 50.0 mg/kg/injection, schedule: Q01DX009 (ip), vehicle: saline with Tween-80

Measured: T/C

CCCC(O)S(=O)(=O)O (stereo unspecified)
inactive: endpoint: mean survival time, dose: 50.0 mg/kg/injection, schedule: Q01DX009 (ip), vehicle: saline 103 % of control | [1] 94 % of control | endpoint: mean survival time, dose: 100.0 mg/kg/injection, schedule: Q04DX003 (ip), vehicle: acetone 102 % of control | [2] 97 % of control | endpoint: mean survival time, dose: 200.0 mg/kg/injection, schedule: Q04DX003 (ip), vehicle: acetone 99 % of control | endpoint: mean survival time, dose: 400.0 mg/kg/injection, schedule: Q04DX003 (ip), vehicle: acetone 93 % of control

O=C1CCN/C(=N\[N+](=O)[O-])N1
inactive: endpoint: mean survival time, dose: 100.0 mg/kg/injection, schedule: Q01DX001 (ip), vehicle: saline with Tween-80 101 % of control | endpoint: mean survival time, dose: 200.0 mg/kg/injection, schedule: Q01DX001 (ip), vehicle: saline with Tween-80 106 % of control

O=C1NCCc2cc3c(cc21)OCO3
inactive: endpoint: mean survival time, dose: 25.0 mg/kg/injection, schedule: Q04DX002 (ip), vehicle: saline 97 % of control | endpoint: mean survival time, dose: 50.0 mg/kg/injection, schedule: Q04DX002 (ip), vehicle: saline 106 % of control | [3] 103 % of control

O=S(=O)(CC(Cl)c1ccc(Cl)cc1)c1ccccc1 (stereo unspecified)
inactive: endpoint: mean survival time, dose: 100.0 mg/kg/injection, schedule: Q01DX001 (ip), vehicle: saline 112 % of control | endpoint: mean survival time, dose: 200.0 mg/kg/injection, schedule: Q01DX001 (ip), vehicle: saline 114 % of control | endpoint: mean survival time, dose: 400.0 mg/kg/injection, schedule: Q01DX001 (ip), vehicle: saline 109 % of control

CCCCOC1CCS(=O)(=O)C1 (stereo unspecified)
inactive: endpoint: mean survival time, dose: 100.0 mg/kg/injection, schedule: Q04DX003 (ip), vehicle: other 101 % of control | endpoint: mean survival time, dose: 200.0 mg/kg/injection, schedule: Q04DX003 (ip), vehicle: other 101 % of control | endpoint: mean survival time, dose: 400.0 mg/kg/injection, schedule: Q04DX003 (ip), vehicle: other 94 % of control

C=CC(=O)NC(=O)/C=C/c1cccnc1
inactive: [4] 117 % of control | [5] 106 % of control | [6] 120 % of control

CC(C)(CO)NCc1ccccc1F
inactive: endpoint: mean survival time, dose: 75.0 mg/kg/injection, schedule: Q01DX001 (ip), vehicle: saline 103 % of control | endpoint: mean survival time, dose: 150.0 mg/kg/injection, schedule: Q01DX001 (ip), vehicle: saline 104 % of control | endpoint: mean survival time, dose: 300.0 mg/kg/injection, schedule: Q01DX001 (ip), vehicle: saline 98 % of control

CCOC(=O)c1[nH]c(-c2ccccc2)cc1-c1ccccc1
inactive: [7] 118 % of control | [8] 108 % of control | [9] 108 % of control

CC12CCC(F)(CC1)CC2=O
inactive: [3] 98 % of control | endpoint: mean survival time, dose: 200.0 mg/kg/injection, schedule: Q04DX002 (ip), vehicle: saline 98 % of control | endpoint: mean survival time, dose: 400.0 mg/kg/injection, schedule: Q04DX002 (ip), vehicle: saline 102 % of control

c1nc([N+]23CCC(CC2)CC3)c2[nH]cnc2n1
inactive: endpoint: mean survival time, dose: 5.0 mg/kg/injection, schedule: Q01DX001 (ip), vehicle: saline 111 % of control | endpoint: mean survival time, dose: 10.0 mg/kg/injection, schedule: Q01DX001 (ip), vehicle: saline 103 % of control | endpoint: mean survival time, dose: 20.0 mg/kg/injection, schedule: Q01DX001 (ip), vehicle: saline 113 % of control | endpoint: mean survival time, dose: 40.0 mg/kg/injection, schedule: Q01DX001 (ip), vehicle: saline 97 % of control | endpoint: mean survival time, dose: 80.0 mg/kg/injection, schedule: Q01DX001 (ip), vehicle: saline 108 % of control

O=C(Nc1ccc(Cl)c(Cl)c1)Nc1ccc(Cl)c(Cl)c1
inactive: [4] 100 % of control | [5] 90 % of control | [6] 86 % of control

CC1(C)OCC(C(OC(=O)c2ccccc2)C(OC2CCCCO2)C2COC(C)(C)O2)O1 (stereo unspecified)
inactive: [7] 94 % of control | [8] 96 % of control | [9] 94 % of control

CCCNC(=O)Nc1ccc(Cl)cc1
inactive: [10] 103 % of control | [11] 98 % of control | [12] 95 % of control

OCCN1CCN(CCCN2c3ccccc3Sc3cccnc32)CC1
inactive: endpoint: mean survival time, dose: 4.68 mg/kg/injection, schedule: Q01DX009 (ip), vehicle: saline 94 % of control | endpoint: mean survival time, dose: 9.37 mg/kg/injection, schedule: Q01DX009 (ip), vehicle: saline 104 % of control | endpoint: mean survival time, dose: 18.75 mg/kg/injection, schedule: Q01DX009 (ip), vehicle: saline 113 % of control | endpoint: mean survival time, dose: 20.0 mg/kg/injection, schedule: Q01DX009 (ip), vehicle: saline 111 % of control | endpoint: mean survival time, dose: 37.5 mg/kg/injection, schedule: Q01DX009 (ip), vehicle: saline 115 % of control | endpoint: mean survival time, dose: 40.0 mg/kg/injection, schedule: Q01DX009 (ip), vehicle: saline 112 % of control | endpoint: mean survival time, dose: 75.0 mg/kg/injection, schedule: Q01DX009 (ip), vehicle: saline 107 % of control | endpoint: median survival time, dose: 20.0 mg/kg/injection, schedule: Q01DX009 (ip), vehicle: saline 113 % of control | endpoint: median survival time, dose: 40.0 mg/kg/injection, schedule: Q01DX009 (ip), vehicle: saline 112 % of control

COC(=O)CCC(=O)Nc1cccc2cnccc12
inactive: endpoint: mean survival time, dose: 100.0 mg/kg/injection, schedule: Q04DX003 (ip), vehicle: saline 102 % of control | endpoint: mean survival time, dose: 400.0 mg/kg/injection, schedule: Q04DX003 (ip), vehicle: saline 102 % of control

COc1ccc([N+](=O)[O-])cc1NC(=O)COc1cc(Cl)c(Cl)cc1Cl
inactive: endpoint: mean survival time, dose: 100.0 mg/kg/injection, schedule: Q01DX009 (ip), vehicle: Klucel (hydroxypropylcellulose) (HPC) 94 % of control | endpoint: mean survival time, dose: 200.0 mg/kg/injection, schedule: Q01DX009 (ip), vehicle: Klucel (hydroxypropylcellulose) (HPC) 108 % of control | endpoint: mean survival time, dose: 400.0 mg/kg/injection, schedule: Q01DX009 (ip), vehicle: Klucel (hydroxypropylcellulose) (HPC) 94 % of control

CN1CCS(=O)(=O)C1=O
inactive: endpoint: mean survival time, dose: 9.5 mg/kg/injection, schedule: Q01DX001 (ip), vehicle: saline 98 % of control | endpoint: mean survival time, dose: 19.0 mg/kg/injection, schedule: Q01DX001 (ip), vehicle: saline 98 % of control | endpoint: mean survival time, dose: 38.0 mg/kg/injection, schedule: Q01DX001 (ip), vehicle: saline 109 % of control

NC(=O)NC1OC(CO)C(O)C(O)C1O (stereo unspecified)
inactive: [1] 95 % of control | [2] 94 % of control | endpoint: mean survival time, dose: 400.0 mg/kg/injection, schedule: Q01DX009 (ip), vehicle: saline 86 % of control

CC(=O)Oc1ccc2ccnc(/C=N\NC(N)=S)c2c1
inactive: [4] 106 % of control | [5] 98 % of control | [6] 117 % of control

O=C(CNC(=O)NCc1ccccc1)N/N=C/c1cccc([N+](=O)[O-])c1
inactive: endpoint: mean survival time, dose: 12.5 mg/kg/injection, schedule: Q01DX009 (ip), vehicle: saline with Tween-80 91 % of control | endpoint: mean survival time, dose: 25.0 mg/kg/injection, schedule: Q01DX009 (ip), vehicle: saline with Tween-80 88 % of control | [13] 92 % of control and 88 % of control

CCOC(=O)/C(C#N)=C\c1cccs1
inactive: [7] 103 % of control

S=P(NCCCCCNP(=S)(N1CC1)N1CC1)(N1CC1)N1CC1
inactive: [10] 91 % of control

Fc1ccc(NC(=S)SCc2ccc(Cl)c(Cl)c2)cc1F
inactive: [13] 108 % of control | endpoint: mean survival time, dose: 100.0 mg/kg/injection, schedule: Q04DX003 (ip), vehicle: saline with Tween-80 102 % of control | endpoint: mean survival time, dose: 200.0 mg/kg/injection, schedule: Q01DX009 (ip), vehicle: saline with Tween-80 112 % of control | endpoint: mean survival time, dose: 200.0 mg/kg/injection, schedule: Q04DX003 (ip), vehicle: saline with Tween-80 106 % of control

O=C(c1ccccc1)C(O)(c1ccccc1)c1ccccc1
inactive: [4] 89 % of control | [5] 107 % of control | [6] 93 % of control

COC1CC(OC2C(C)C(=O)OC(C)C(C)C(OC(C)=O)C(C)C(=O)C3(CO3)CC(C)C(OC3OC(C)CC(N(C)C)C3OC(C)=O)C2C)OC(C)C1OC(C)=O (stereo unspecified)
inactive: [10] 108 % of control | [11] 113 % of control | [12] 108 % of control

Nc1ccn(C2CC(O)C(CO)O2)c(=O)n1 (stereo unspecified)
inactive: endpoint: median survival time, dose: 75.0 mg/kg/injection, schedule: Q01DX001 (ip), vehicle: other 100 % of control and 101 % of control | endpoint: median survival time, dose: 150.0 mg/kg/injection, schedule: Q01DX001 (ip), vehicle: other 99 % of control and 100 % of control

O=C1NC(c2cccc3ccccc23)Nc2ccc(Cl)cc21 (stereo unspecified)
inactive: endpoint: mean survival time, dose: 50.0 mg/kg/injection, schedule: Q01DX009 (ip), vehicle: Klucel (hydroxypropylcellulose) (HPC) 108 % of control and 109 % of control | endpoint: mean survival time, dose: 150.0 mg/kg/injection, schedule: Q01DX009 (ip), vehicle: Klucel (hydroxypropylcellulose) (HPC) 116 % of control

CCCCCCCCCCCCCCCCCCCCCCCC(=O)OCC
inactive: endpoint: mean survival time, dose: 400.0 mg/kg/injection, schedule: Q04DX003 (ip), vehicle: saline with Tween-80 92 % of control
